From US20130252983A1, “ACTIVATING PHOSPHORYLATION SITE ON GLUTAMINASE C” (CORNELL UNIVERSITY, priority 2010, published 2013)

Tests used:
[1] = test system: GA activity of MDA-MB231 cells; test: GA activity in mitochondrial fractions of treated MDA-MB231 cells; format: cell-based, human; details: 10 μM, 48 hours
Method: (§1) 100%=620 moles of glutamine hydrolyzed per minute per mole of enzyme. Data represent the average of 3 experiments (±s.d.). […] Following precipitation of the beads and re-suspension, the samples were analyzed by Western blotting with anti-V5 antibody. […] Data represent the average of 3 experiments (±s.d.). […] Data represent the average of 3 experiments (±s.d.). […] Data represent the average of 3 experiments (±s.d.). FIG. 3E NIH 3T3 cells transiently expressing Dbl were assayed for focus formation in the presence of 10 μM 968 alone or together with 7 mM dimethyl α-ketoglutarate. […] 100%=680 nM glutamine hydrolyzed per minute per 10^5 cells. Data are the average of 3 experiments (±s.d.). […] 100%=750 nM glutamine hydrolyzed per minute per 10^5 cells. Data represent the average of 3 experiments (±s.d.).
Mitochondrial preparations were obtained using the mitochondria isolation kit from QIAGEN (Cat #37612). A suspension containing 2×10^7 cells was transferred into a 50 ml conical tube and centrifuged at 500×g for 10 minutes at 4° C. The pellets were resuspended in 2 ml of ice-cold lysis buffer (supplied by QIAGEN) and incubated for 10 minutes at 4° C. using an end-over-end shaker. […]

[2] = molecular target: T1, mouse GAC (E. coli-expressed mouse ortholog of human GAC) (Mus musculus, UniProt D3Z7P3); test: Recombinant glutaminase activity assay; format: biochemical
T1 construct: A plasmid encoding mouse GAC (residues 128-603) was cloned into the pET28a vector; His (N, cleaved yes); made in house; host or cells: E. coli (pET28a)
T1 sequence (D3Z7P3 128-603 isoform D3Z7P3-2): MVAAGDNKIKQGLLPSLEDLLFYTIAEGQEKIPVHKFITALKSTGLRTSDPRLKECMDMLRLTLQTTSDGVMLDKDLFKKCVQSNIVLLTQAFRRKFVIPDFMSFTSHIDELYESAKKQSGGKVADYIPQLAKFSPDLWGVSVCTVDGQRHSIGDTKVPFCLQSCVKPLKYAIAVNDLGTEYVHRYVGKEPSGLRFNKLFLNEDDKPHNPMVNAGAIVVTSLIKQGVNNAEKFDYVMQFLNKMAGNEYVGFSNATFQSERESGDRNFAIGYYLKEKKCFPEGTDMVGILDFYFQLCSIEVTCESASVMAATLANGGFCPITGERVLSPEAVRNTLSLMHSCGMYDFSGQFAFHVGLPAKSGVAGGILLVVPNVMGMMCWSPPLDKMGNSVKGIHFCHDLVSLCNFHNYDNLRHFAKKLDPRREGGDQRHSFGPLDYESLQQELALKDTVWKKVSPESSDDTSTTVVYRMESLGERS
Method: as §1
The activity of the E. coli-expressed recombinant mouse ortholog of human GAC were assayed in the presence of 0 ([…]), 10 (∇) or 20 (▪) μM 968 and inorganic phosphate in the form of dipotassium hydrogen phosphate. […] The data are plotted as GA activity as function of varying concentrations of glutamine or inorganic phosphate. The data are the average of 3 experiments and are plotted as mean±SEM.
Glutaminase activity assays were performed on recombinant enzyme as previously described (Kenny et al., “Bacterial Expression, Purification and Characterization of Rat Kidney-Type Mitochondrial Glutaminase,” Protein Expr. Purif. 31:140-148 (2003), which is hereby incorporated by reference in its entirety). A plasmid encoding mouse GAC (residues 128-603) was cloned into the pET28a vector and the protein was expressed with an N-terminal histidine (His)-tag. The tag was cleaved using thrombin and the protein was further purified by anion-exchange and gel-filtration chromatography. […] The reaction mixture was incubated at room temperature for 45 minutes and the absorbance at 340 nm was recorded for each sample against a water blank. The absorbance of the sample with just the cocktail mixture was subtracted from each reading to calculate the activity of the enzyme.

## CN(C)c1ccc(C2Nc3ccc4ccccc4c3C3=C2C(=O)CC(C)(C)C3)cc1Br (stereo not drawn) [Compound 968, 5-[3-bromo-4-(dimethylamino)phenyl]-2,2-dimethyl-2,3,5,6-tetrahydrobenzo[a]]
[1]
  basal GA activity: sensitive to 968
[2]
  inhibition of enzymatic activity of purified mouse GAC: inhibits the enzymatic activity
[2]; 0, 10 or 20 μM, glutamine or inorganic phosphate varied
  mode of inhibition: neither competitive versus substrate (glutamine) nor inorganic phosphate
